# Measured values as given in publication PMC2760454 (Biochemistry, 2008).
# Like-named read-outs stand apart in the source and are kept apart here.
# Assays:
# [1] = target: T1, homoisocitrate dehydrogenase (HIcDH) (Saccharomyces cerevisiae, UniProt P40495); assay: HIcDH initial velocity studies; assay type: biochemical; settings: for Kact (activation constant): varied salt, MgHIc 4.2 µM, NAD 0.5 mM, fit to eq. 1
# [2] = target: T1, homoisocitrate dehydrogenase (HIcDH); assay: pH dependence of HIcDH kinetic parameters and of the activation constant of K+; assay type: biochemical
# [3] = target: T1, homoisocitrate dehydrogenase (HIcDH); settings: in the presence of K+; cited from earlier work
# [4] = target: T1, homoisocitrate dehydrogenase (HIcDH); assay: Product and dead-end inhibition studies of HIcDH in the absence of K+; assay type: biochemical; settings: NAD fixed at its Km
# T1 sequence (P40495 23-371): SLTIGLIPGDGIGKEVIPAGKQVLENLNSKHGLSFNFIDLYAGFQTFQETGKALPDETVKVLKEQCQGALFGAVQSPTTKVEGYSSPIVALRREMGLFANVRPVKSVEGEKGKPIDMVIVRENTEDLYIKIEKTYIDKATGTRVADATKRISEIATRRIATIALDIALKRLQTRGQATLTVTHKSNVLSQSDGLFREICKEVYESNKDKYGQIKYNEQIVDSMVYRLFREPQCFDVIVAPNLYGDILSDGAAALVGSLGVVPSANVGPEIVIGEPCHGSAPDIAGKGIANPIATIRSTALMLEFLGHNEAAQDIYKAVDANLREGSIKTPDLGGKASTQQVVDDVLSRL
structure (smiles),measurement,setting,value
"[K+] [K^+, Potassium]",Kd,"[1]; read-out: KiK, NAD varied at fixed KOAc, MgHIc saturating (10Km), fit to eq. 5",43 ± 19 mM
same,"appKact, pH independent value","[2]; KOAc varied, NAD 0.4 mM, MgHIc 10Km, average of data above pH 7",about 13 mM
"NC(=O)c1ccc[n+]([C@@H]2O[C@H](COP(=O)([O-])OP(=O)(O)OC[C@H]3O[C@@H](n4cnc5c(N)ncnc54)[C@H](O)[C@@H]3O)[C@@H](O)[C@H]2O)c1 [NAD, nicotinamide adenine dinucleotide]",Kd,[1],77 ± 57 mM
same,KNAD,[1]; KCl 0 mM,9 ± 3 mM
same,KNAD,[1]; KCl 5 mM,1.6 ± 0.2 mM
same,KNAD,[1]; KCl 15 mM,1.3 ± 0.1 mM
same,KNAD,[1]; KCl 150 mM,0.8 ± 0.1 mM
same,KNAD,[1]; KCl 350 mM,0.9 ± 0.2 mM
same,KNAD,"[1]; Minus KOAc, pH 8.0, 25°C",9 ± 3 mM
same,V1/KNADEt,"[1]; Minus KOAc, pH 8.0, 25°C",(5 ± 1) × 10^2 M^−1·s^−1
same,KNAD,"[1]; NAD varied at fixed KOAc, MgHIc saturating (10Km), fit to eq. 5",0.3 ± 0.1 mM
same,KNAD,"[1]; Plus KOAc, pH 8.0, 25°C",0.3 ± 0.1 mM
same,V1/KNADEt,"[1]; Plus KOAc, pH 8.0, 25°C",(4 ± 1) × 10^4 M^−1·s^−1
same,"V/KNADEt, constant value at high pH","[2]; absence of K+, pH 8.5 to 9.7",about 123 ± 3 M^−1s^−1
"C[N+](C)(C)C.[Cl-] [tetramethylammonium chloride, reference compound]",initial rate as % of that without KCl,"[1]; 200 mM, fixed concentrations of MgHIc and NAD",about 36%
"CC(=O)[O-].[K+] [KOAc, Potassium acetate]",Ki fold higher than with KCl,[1]; KOAc versus KCl,5 fold
same,Kact (activation constant),[1],26 ± 4 mM
[Cl-].[K+] [KCl],fold increase in initial rate,"[1]; 200 mM KCl versus absence, reactants fixed at their Km values",13 fold
same,Kact (activation constant),[1],55 ± 20 mM
"NC(=O)C1=CN([C@@H]2O[C@H](COP(=O)(O)OP(=O)(O)OC[C@H]3O[C@@H](n4cnc5c(N)ncnc54)[C@H](O)[C@@H]3O)[C@@H](O)[C@H]2O)C=CC1 [NADH, reduced nicotinamide adenine dinucleotide]",Ki,[3],0.3 mM
"O=C(O)CCC=C(C(=O)O)C(O)C(=O)O (stereo not drawn) [CPM, 3-Carboxypropylidenemalate]","inhibition constant, competitive versus MgHIc",[4],65 ± 7 ∝M
